Measured values published in patent US9289490B2, “Combinations and uses thereof” (MORPHOSYS AG, priority 2010, dated 2016).
Several values for one entry are separate records, joined by “and”; a condition that tells them apart may be missing. Equal entries are not always repeated.

Columns and labels:
[1] = test system: Plasmacytoma, Malignant Plasma Cells; test: CD38 surface expression after lenalidomide (FACS, ABC); type: cell-based, human
Experimental: Bone marrow samples (4-10 ml aspirate) from multiple myeloma patients and extramedullary tumor plasmacytoma samples were obtained after informed consent from the Klinikum rechts der Isar (“KrdI”) (Munich, Germany). Samples were subjected to centrifugation, and further plasma cell enrichment was achieved via magnetic-activated cell sorting.
Cells were stained with a directly labelled QuantiBRITE™ CD38-PE antibody (Becton Dickinson GmbH, Clone HB7, CAT #342371), which is specific for CD38. The “Antibodies Bound Per Cell” (ABC's) were determined using the flow cytometry based QuantiBRITE™ system, which measures the geometric mean (GeoMean) per cell. Conversion of measured GeoMean into correlating ABC amount per cell was done with GraphPad PRISM™ software. The ABC values are assumed to correlate with the number of CD38 molecules per cell, since QuantiBRITE™ CD38-PE carries one PE molecule per antibody.
To determine whether lenalidomide induced upregulation of CD38 in the multiple myeloma and plasmacytoma cells of Table 1, the cell lines were incubated with 100 μM lenalidomide and, subsequently, CD38 surface expression was analyzed by FACS.
Around 2×10^5 cells of each of the cells lines of Table 1 were plated on 48-well dishes in standard RPMI medium. Lenalidomide, purchased from Selleck Chemicals (LLC S1029, CAS No. 191732-6; Batch: S10290), was applied to respective wells to a final concentration of 100 μM in a volume of 750 μl containing 20% FCS and 0.1% DMSO.
Cells were resuspended by gentle pipetting and 250 μl of cell suspension per incubation period were transferred into a well of a 96-well round bottom plate. Cells were washed by centrifugation for 1 min at 700×g and were resuspended in 150 μl of cold FACS buffer (1×PBS supplemented with 3% FCS). Cells were again pelleted down by centrifugation and were resuspended in 150 μl of FACS buffer containing 15 μg/ml of anti-CD38 antibody (MOR202, IgG1) or control antibody MOR03207 and incubated for 1 h on ice. […]

[2] = test system: NCI-H929 cells; test: ADCC with human PBMCs, flow cytometry (CalceinAM/PI)
Experimental: (§1) PBMC's were isolated by density gradient centrifugation of freshly isolated human blood. Isolated blood from different donors were layered on a defined volume of Biocoll (Biochrome AG; CAT No.:L6115; LOT No.:1050T) in a Falcon tube and centrifuged at 380 g. The PBMCs were isolated and supplemented with RPMI medium.
(§2) Cell suspensions were further incubated for 4 h at 37° C. To detect dead AMO-1 cells, cell suspensions were challenged with propidium iodide (PI) and subsequently analyzed in flow cytometry. Target cells were separated via gating of CalceinAM positive cell populations, and cells killed via ADCC were quantified.
(§3) Single and combination doses of 5 μM LEN and 15 μg/ml of MOR03207 and 0.2 or 0.07 μg/ml MOR202 were used.
(§4) Single and combination doses of 5 μM LEN and 15 μg/ml of MOR03207 and 0.2* or 0.07 μg/m MOR202 were used.

[3] = test system: NCI-H929 cells; conditions: 5 µM
Experimental: as §1, §2, §3, §4

[4] = test system: NCI-H929 cells; test: Cell proliferation, XTT-based assay; conditions: NCI-H929 cells
Experimental: Cells were collected and distributed in 96-well plates with 5000 cells per well.
After incubation, plates were analyzed for cell proliferation in a quantitative colorimietric XTT-based assay using the cell proliferation kit II (ROCHE, Cell Proliferation Kit II, Cat. No.: 11465015001). For subsequent measurement plates were subjected to Tecan Genios Reader and absorbance at 492 nm was detected.
Increasing amounts of Bortezomib (Velcade®, Lot: No.: #9AZSY00) were applied to AMO-1, LP-1, NCI-H929 and RPMI-8226 cells and incubated for 24 h, 48 h and 72 h. After incubation, period plates were analyzed for cell proliferation in a quantitative colorimietric XTT-based assay using the cell proliferation kit II (ROCHE, Cell Proliferation Kit II, Cat. No.: 11465015001). For subsequent measurement, plates were subjected to Tecan Genios Reader and absorbance at 492 nm was detected.

## Nc1cccc2c1CN(C1CCC(=O)NC1=O)C2=O (centres unmarked) [LEN, lenalidomide]
[1]; 100 μM lenalidomide
  Absolute number of ABC (CD38 expression) LEN (extrapolated): 69,000 ABC
[1]; 100 μM lenalidomide vs basal
  Absolute number of ABC (CD38 expression) INCREASE: 39,000 ABC
  Fold increase (CD38 expression): 2.3 fold
[2]; NCI-H929 cells, Fractional Product Concept and Chou et al., 6 out of 6 experiments each
  Enhancement of MOR202 activity by LEN (in words): synergistically enhanced MOR202 activity
[2]; PBMCs and NCI-H929 cells treated with LEN before MOR202, LEN 5 μM, MOR202 0.07 μg/ml, MOR03207 15 μg/ml
  % dead cells (raw data, Table 7a), Exp. 2 and 3: 39.92 % dead cells and 41.92 % dead cells
[2]; PBMCs and NCI-H929 cells treated with LEN before MOR202, LEN 5 μM, MOR202 0.2 μg/ml (*), MOR03207 15 μg/ml
  % dead cells (raw data, Table 7a), Exp. 1: 38.65 % dead cells
[2]; PBMCs and NCI-H929 cells treated with LEN, LEN 5 μM, MOR202 0.2 or 0.07 μg/ml, average of 3 experiments
  Normalized specific killing, AVERAGE (Table 7b): 0.63
[2]; only effector cells treated with LEN before MOR202, LEN 5 μM, MOR202 0.07 μg/ml, MOR03207 15 μg/ml
  % dead cells (raw data, Table 8a), Exp. 2 and 3: 26.27 % dead cells and 25.72 % dead cells
[2]; only effector cells treated with LEN before MOR202, LEN 5 μM, MOR202 0.2 μg/ml (*), MOR03207 15 μg/ml
  % dead cells (raw data, Table 8a), Exp. 1: 17.50 % dead cells
[2]; only effector cells treated with LEN, LEN 5 μM, MOR202 0.2 or 0.07 μg/ml, average of 3 experiments
  Normalized specific killing, AVERAGE (Table 8b): 0.02
[3]
  Normalized specific killing, fractional product combination set as 1 (Table 7b), Exp. 1: 0.67
  Normalized specific killing, fractional product combination set as 1 (Table 8b), Exp. 1: −0.10
[4]
  Inhibition of cell proliferation by lenalidomide alone (in words): significant effect on the proliferation of NCI-H929 cells
[4]; listed as Lenalidomide
  Inhibition of cell proliferation by lenalidomide alone (in words): signficantly inhibited cell proliferation
